Consider 1 compound from patent publication US20170198337A1, “HIGH THROUGHPUT TELOMERIC CIRCLE ASSAY” (SENS FOUNDATION, INC., priority 2014, published 2017).

One assay has as its system ALT-positive cell lines. In words: CC EATR assay, C-circle content of cells treated with hydroxyurea, 96-well plates. In kind it is cell-based, human. The following applies: high-throughput format, FIG. 14. The method, then:
FIG. 14 depicts the detection of experimentally modulated ALT levels using the CC EATR assay. Treatment of cells with hydroxyurea (HU) decreases ALT levels. […] This experiment was performed in a high-throughput format in a 96-well plates.
For the fluorescence-based detection of RCA-mediated, CC-derived products (FIGS. 3 and 4, illustrating exonuclease digestion from the 5′ or 3′ terminus, respectively), 20 μL of each sample post-RCA (a single reaction per sample) was combined with 20 μL of 0.1 mg/ml BSA, 3 mM DTT, 0.05% Tween, 10 mM Bis-Tris-Propane-HCl, 10 mM MgCl2 (final pH 7.0 at 25 degrees C.), 2.5 U of Exonuclease III or 10 U of T7 Exonuclease (NEB), and 100 nM of (CCCTAA)2 probe labeled at the 5′ end with a 6-Carboxyfluorescein (FAM) fluorophore and a ZEN internal quencher (Integrated DNA Technologies) at the first T position. […] Fluorescence signals were collected using Applied Biosystems StepOnePlus Real-Time PCR system configured to acquire data from FAM/FITC filter sets and the reaction was run at 37° C. for 1 hour with signal being collected at 0 min and then every 15 min thereafter. […]
On day 0, passage 50 U2OS cells were seeded into a 10 cm plate, a 6 well plate, a 24 well plate and a 96 well plate at quantities of 5×10^5, 3×10^5, 1×10^4 and 1×10^4 per well respectively. […]

The subject of another assay is ALT-positive cells. The conditions noted are these: reported in the literature; cited from earlier work.

On to `NC(=O)NO` [hydroxyurea], for which the “C-circle content of ALT-positive cell lines after HU treatment” value in the assay on ALT-positive cell lines is given as “significant decreases”. In addition, in the assay with ALT-positive cells, the “ALT activity of ALT-positive cells upon treatment” value is “decreased ALT activity”.
